Results published in US20220259593A1, “CONTROL OF MAMMALIAN GENE DOSAGE USING CRISPR” (The Regents of the University of California, priority 2019, published 2022).

Tested on: K562 CRISPRi cells
Assay: Perturb-seq pooled growth measurement (sgRNA counts, growth phenotype γ, relative activity)
Assay type: cell-based, human
Conditions: sequencing read counts; for Perturb-seq pooled growth sgRNA counts, d5: 5 days of growth (day seven after transduction); for Perturb-seq pooled growth sgRNA counts, d10: 10 days of growth (day twelve after transduction); for Perturb-seq pooled growth sgRNA counts, T0: T0 = day two after transduction
Method in brief: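 sgRNA abundance was sequenced from genomic DNA of the same transduced population sampled on days two, seven and twelve. Phenotype γ compares normalized day seven and twelve counts with day two. Day-seven values (five days of growth) define relative sgRNA activity.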

Substance | Perturb-seq pooled growth sgRNA counts, d5 | Perturb-seq pooled growth sgRNA counts, d10 | Perturb-seq pooled growth sgRNA counts, T0
GINS1_−_25388381.23-P1P2_08: sgRNA targeting GINS1, GGACTAGAGCGAAAGGAGTG, SEQ ID NO: 94 (listed as DNA, chemistry not fully specified) | 2461 | 1756 | 18173
GINS1_−_25388381.23-P1P2_14: sgRNA targeting GINS1, GGACTAGAACGAAAGGAGCG, SEQ ID NO: 97 (listed as DNA, chemistry not fully specified) | 5833 | 6093 | 6443
GNB2L1_+_180670873.23-P1P2_00: sgRNA targeting GNB2L1, GTGCAAGGCGGCGGCAGGAG, SEQ ID NO: 55 (listed as DNA, chemistry not fully specified) | 2456 | 1685 | 2280
GNB2L1_+_180670873.23-P1P2_02: sgRNA targeting GNB2L1, GTGCAAGACGGCGGCAGGAG, SEQ ID NO: 59 (listed as DNA, chemistry not fully specified) | 6216 | 7618 | 3839
GNB2L1_+_180670873.23-P1P2_07: sgRNA targeting GNB2L1, GTGCAAGGCGGGGGCAGGAG, SEQ ID NO: 58 (listed as DNA, chemistry not fully specified) | 8322 | 8738 | 9894
GNB2L1_+_180670873.23-P1P2_08: sgRNA targeting GNB2L1, GTGCAAGGTGGCGGCAGGAG, SEQ ID NO: 56 (listed as DNA, chemistry not fully specified) | 25247 | 17083 | 24451
GNB2L1_+_180670873.23-P1P2_13: sgRNA targeting GNB2L1, GTGCAAGGCGGCGGCGGGAG, SEQ ID NO: 57 (listed as DNA, chemistry not fully specified) | 6350 | 5991 | 4708
HSPA5_+_128003624.23-P1P2_00: sgRNA targeting HSPA5, GAGCCGAGTAGGCGACGGTG, SEQ ID NO: 88 (listed as DNA, chemistry not fully specified) | 1756 | 2176 | 5785
HSPA5_+_128003624.23-P1P2_01: sgRNA targeting HSPA5, GAACCGAGTAGGCGACGGTG, SEQ ID NO: 91 (listed as DNA, chemistry not fully specified) | 3124 | 3812 | 7580
HSPA5_+_128003624.23-P1P2_04: sgRNA targeting HSPA5, GAGCCGAGAAGGCGACGGTG, SEQ ID NO: 89 (listed as DNA, chemistry not fully specified) | 3304 | 4282 | 11091
HSPA5_+_128003624.23-P1P2_06: sgRNA targeting HSPA5, GAGCCGAGTAGACGACGGTG, SEQ ID NO: 92 (listed as DNA, chemistry not fully specified) | 17649 | 23714 | 10180
HSPA5_+_128003624.23-P1P2_08: sgRNA targeting HSPA5, GAGCCGAGTGGGCGACGGTG, SEQ ID NO: 90 (listed as DNA, chemistry not fully specified) | 3005 | 3487 | 10148
HSPA9_−_137911079.23-P1P2_00: sgRNA targeting HSPA9, GGAGCTGCGCGATGCGGTGG, SEQ ID NO: 131 (listed as DNA, chemistry not fully specified) | 944 | 835 | 5450
HSPA9_−_137911079.23-P1P2_02: sgRNA targeting HSPA9, GGAGTTGCGCGATGCGGTGG, SEQ ID NO: 133 (listed as DNA, chemistry not fully specified) | 1727 | 1872 | 4345
HSPA9_−_137911079.23-P1P2_04: sgRNA targeting HSPA9, GGAGCTGCGCAATGCGGTGG, SEQ ID NO: 135 (listed as DNA, chemistry not fully specified) | 9346 | 10829 | 6754
HSPA9_−_137911079.23-P1P2_07: sgRNA targeting HSPA9, GGAGCTGCGGGATGCGGTGG, SEQ ID NO: 132 (listed as DNA, chemistry not fully specified) | 1513 | 1463 | 5941
HSPA9_−_137911079.23-P1P2_08: sgRNA targeting HSPA9, GGAGCTGCTCGATGCGGTGG, SEQ ID NO: 134 (listed as DNA, chemistry not fully specified) | 2803 | 2726 | 3137
HSPE1_+_198365089.23-P1P2_00: sgRNA targeting HSPE1, GGAGACTCGCAGTCCGGCCC, SEQ ID NO: 9 (listed as DNA, chemistry not fully specified) | 2348 | 1179 | 6813
HSPE1_+_198365089.23-P1P2_01: sgRNA targeting HSPE1, GGAGACACGCAGTCCGGCCC, SEQ ID NO: 65 (listed as DNA, chemistry not fully specified) | 4228 | 2663 | 9669
HSPE1_+_198365089.23-P1P2_02: sgRNA targeting HSPE1, GGAGACTGGCAGTCCGGCCC, SEQ ID NO: 67 (listed as DNA, chemistry not fully specified) | 5731 | 4437 | 7969
HSPE1_+_198365089.23-P1P2_03: sgRNA targeting HSPE1, GGTGACTCGCAGTCCGGCCC, SEQ ID NO: 66 (listed as DNA, chemistry not fully specified) | 3034 | 2279 | 7473
HSPE1_+_198365089.23-P1P2_14: sgRNA targeting HSPE1, GGAGACTCGCAGTCCTGCCC, SEQ ID NO: 68 (listed as DNA, chemistry not fully specified) | 6501 | 6498 | 4808
MTOR_+_11322547.23-P1P2_00: sgRNA targeting MTOR, GGGCAGGGGGCCTGAAGCGG, SEQ ID NO: 146 (listed as DNA, chemistry not fully specified) | 6328 | 3144 | 17632
MTOR_+_11322547.23-P1P2_05: sgRNA targeting MTOR, GGGCAGGGGGCTTGAAGCGG, SEQ ID NO: 148 (listed as DNA, chemistry not fully specified) | 4083 | 3324 | 5595
MTOR_+_11322547.23-P1P2_06: sgRNA targeting MTOR, GGGCAGGGGGGCTGAAGCGG, SEQ ID NO: 149 (listed as DNA, chemistry not fully specified) | 3358 | 3174 | 4142
MTOR_+_11322547.23-P1P2_07: sgRNA targeting MTOR, GGGCAGGGGGTCTGAAGCGG, SEQ ID NO: 147 (listed as DNA, chemistry not fully specified) | 3183 | 1899 | 6761
